Consider one cell line from the supplement of paper PMC10307832.

Assay in all cases: relative viability (nuclei count vs DMSO), 5 days (fraction); higher = more cells survive
Compound in experiment [1]: CC1=C(N=C(N=C1N)[C@H](CC(=O)N)NC[C@@H](C(=O)N)N)C(=O)N[C@@H]([C@H](C2=CN=CN2)OC3C(C(C(C(O3)CO)O)O)OC4C(C(C(C(O4)CO)O)OC(=O)N)O)C(=O)N[C@H](C)[C@H]([C@H](C)C(=O)N[C@@H]([C@@H](C)O)C(=O)NCCC5=NC(=CS5)C6=NC(=CS6)C(=O)NCCC[S+](C)C)O [Bleomycin] + O=C(c1cc(Cc2n[nH]c(=O)c3ccccc23)ccc1F)N1CCN(C(=O)C2CC2)CC1 [Olaparib] (partner 8 µM)
Conditions: main component drawn. The procedure, abridged: (§1)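 Cells from lung cancer lines were seeded into 1536-well plates and, one day later, dosed by pin tool. Treatments were either a single drug or a fixed dose of an anchor drug with five library-drug doses (not always all listed) in √10 steps. After 5 days, nuclei were stained in a one-step fixation (final 0.05% Triton X-100, 1% formaldehyde, 1 ug/ml Hoechst) and counted on 4× images, and relative viability is the treated-to-vehicle nuclei ratio, as the median of duplicate plates.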

Compound in experiment [2]: COc1cc([C@@H]2c3cc4c(cc3[C@@H](O[C@@H]3O[C@@H]5CO[C@@H](C)O[C@H]5[C@H](O)[C@H]3O)[C@H]3COC(=O)[C@H]23)OCO4)cc(OC)c1O [Etoposide] + C[C@@H](Oc1cc(-c2cnn(C3CCNCC3)c2)cnc1N)c1c(Cl)ccc(F)c1Cl [Crizotinib] (partner 1 µM)
The procedure, abridged: as §1

Compound in experiment [3]: COc1cc([C@@H]2c3cc4c(cc3[C@@H](O[C@@H]3O[C@@H]5CO[C@@H](C)O[C@H]5[C@H](O)[C@H]3O)[C@H]3COC(=O)[C@H]23)OCO4)cc(OC)c1O [Etoposide] + O=C(c1cc(Cc2n[nH]c(=O)c3ccccc23)ccc1F)N1CCN(C(=O)C2CC2)CC1 [Olaparib] (partner 8 µM)
The procedure, abridged:
as §1

Compound in experiment [4]: CC1=C(N=C(N=C1N)[C@H](CC(=O)N)NC[C@@H](C(=O)N)N)C(=O)N[C@@H]([C@H](C2=CN=CN2)OC3C(C(C(C(O3)CO)O)O)OC4C(C(C(C(O4)CO)O)OC(=O)N)O)C(=O)N[C@H](C)[C@H]([C@H](C)C(=O)N[C@@H]([C@@H](C)O)C(=O)NCCC5=NC(=CS5)C6=NC(=CS6)C(=O)NCCC[S+](C)C)O [Bleomycin] + CC1(C)CCC(c2ccc(Cl)cc2)=C(CN2CCN(c3ccc(C(=O)NS(=O)(=O)c4ccc(N[C@H](CCN5CCOCC5)CSc5ccccc5)c(S(=O)(=O)C(F)(F)F)c4)cc3)CC2)C1 [Navitoclax] (partner 0.5 µM)
To be noted: main component drawn. The procedure, abridged:
as §1

Take UMC-11: the relative viability in experiment [1] (first compound 0.01 µM) was 0.36; in experiment [1] (first compound 0.03162 µM), 0.342; in experiment [1] (first compound 0.1 µM), 0.371; in experiment [1] (first compound 0.3162 µM) it was 0.393; in experiment [1] (first compound 1 µM), 0.271; in experiment [2] (first compound 0.01 µM), 0.703. Besides, the relative viability came to 0.573 in experiment [2] (first compound 0.03162 µM); 0.241 in experiment [2] (first compound 0.3162 µM); 0.146 in experiment [2] (first compound 1 µM); 0.326 in experiment [3] (first compound 0.01 µM); 0.331 in experiment [3] (first compound 0.03162 µM); 0.311 in experiment [3] (first compound 0.1 µM). For the same cell line, the relative viability is 0.27 in experiment [3] (first compound 0.3162 µM); 0.28 in experiment [3] (first compound 1 µM); 0.376 in experiment [4] (first compound 0.01 µM); 0.264 in experiment [4] (first compound 0.03162 µM); 0.286 in experiment [4] (first compound 0.1 µM); 0.22 in experiment [4] (first compound 0.3162 µM). In addition, the relative viability in experiment [4] (first compound 1 µM) is 0.205.
